Activity calls are given as the source filed them.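 Rule for the calls: active = EC50 no more than a set limit of log units above the highest dose; inactive = the rest.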

In this experiment the target is S. pyogenes SKKanGAS, kanamycin survival, BacTiterGlo, 6 h. The experiment can be described thus: S. pyogenes SKKanGAS kanamycin growth inhibitors – SKKanGAS strain, luminescence, dose confirmation, streptokinase promoter inhibitor project, dose response (AID 1902).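 Note: lower survival reflects blocked streptokinase promoter driving kanamycin resistance gene.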
With `Cc1nnc(SCC2=C(C(=O)O)N3C(=O)C(NC(=O)Cn4ncc(Cl)c4C)C3SC2)s1` (centres undefined), the EC50 (commonly the concentration that produces a half-maximal response) is less than 60 nM.

Turning to `CCOC(=O)c1c(S(=O)(=O)N2CCCCCC2)c(C)n(C)c1C`, the EC50 is > 15000 nM (inactive).

As to `C/C(=N\N=C(/N)SC1CC(=O)N(c2ccc(Cl)c(Cl)c2)C1=O)c1cccs1` (centres undefined), the EC50 is 2130 nM.

On to `CC1=Nc2ccccc2/C1=C\c1nc(-c2ccc(F)cc2)oc1O`, for which the concentration giving a half-maximal response (EC50) was 7570 nM.

For the compound `COc1ccc(C(=O)N/N=C/c2cc(Br)ccc2O)cc1OC`, the EC50 is 1280 nM.

Regarding `Cc1ccc(OCC(=O)NNC(=S)NC(=O)c2ccc(Br)o2)c(C)c1`, the EC50 was less than 60 nM.

As to `N=C1S/C(=C\c2ccco2)C(=O)N1c1nccs1`, the concentration for a half-maximal effect (EC50) was 2130 nM.

Regarding `O=C(CSc1ccccn1)Nc1nonc1[N+](=O)[O-]`, the EC50 is 7310 nM.

For `C/C(=N\N=C(/N)SC1CC(=O)N(c2ccc(Br)cc2)C1=O)c1cccs1` (centres undefined), the EC50 was 5030 nM.

For `CC(C)=CCc1c(O)c(CC=C(C)C)c2occ(-c3ccc(O)cc3)c(=O)c2c1O`, the EC50 was 1860 nM.

Take `CCOc1ccc(Cl)cc1S(=O)(=O)n1cnc2cc(C)c(C)cc21`: the concentration giving a half-maximal response (EC50) was 4770 nM.

In the case of `CCC(=O)N(CCC(Cc1ccccc1)c1ccc2c(c1)OCO2)Cc1ccccc1F` (centres undefined), the EC50 was 6500 nM.

As for `Nc1nc(CN2CCN(c3ccc(F)cc3)CC2)nc(N2CCCc3ccccc32)n1`, the EC50 was 178 nM.

Turning to `O=C(N/N=C/c1c[nH]c2ccccc12)c1[nH]c2ccc(Br)cc2c1-c1ccccc1`, the concentration for a half-maximal effect (EC50) was 2170 nM.

As for `CC(C)C(Sc1nc(-c2ccccc2)cc(-c2ccccc2)c1C#N)C(=O)O` (centres undefined), the concentration for a half-maximal effect (EC50) was 2040 nM.

`O=C(NNC1=Nc2ccccc2SC1)c1ccc(F)cc1`: the EC50 was 6870 nM.

Take `CC(C)N=c1cc2n(-c3ccc(Cl)cc3)c3ccccc3nc-2cc1Nc1ccc(Cl)cc1`: the concentration for a half-maximal effect (EC50) was 1240 nM.

With `NS(=O)(=O)c1ccc(N/N=C2/CCCCC2C2CCCCC2)c([N+](=O)[O-])c1` (centres undefined), the EC50 was 3110 nM.

In the case of `O=C(NNC(=S)NC(=O)c1cn(-c2ccccc2)nc1-c1ccccc1)c1ccncc1`, the half-maximal effective concentration (EC50) is 151 nM.

As to `CCCC1CC(C(=O)NC(C(C)Cl)C2OC(SC)C(O)C(O)C2O)N(C)C1` (centres undefined), the EC50 is less than 60 nM.

Regarding `CCOc1cc(CNc2ccc3c(c2)CCC3)ccc1OC`, the EC50 was > 15000 nM (inactive).

For the compound `CCC(C)c1ccc(C(C)NC(=S)NC2CCCCC2)cc1` (centres undefined), the EC50 is 9120 nM.

Consider `CC(C)(C)c1ccc(OCC(O)CS(=O)(=O)c2ccccn2)cc1` (centres undefined), for which the EC50 is > 15000 nM (inactive).

Take `CCOc1ccc(-c2nnc(NC(=O)c3ccc(OCC(C)C)c(OC)c3)o2)cc1`: the concentration giving a half-maximal response (EC50) was 347 nM.

For the compound `Cc1nn(-c2ccccc2)c2c1C(c1ccc(O)c(O)c1)N1C(=N2)C(Nc2ccccc2)=Nc2ccccc21` (centres undefined), the 50% effective concentration (EC50) is 1360 nM.

Consider `CCc1cc(-c2n[nH]c(C)c2Oc2ccc(C(C)C)cc2)c(O)cc1O`, for which the EC50 was 1850 nM.

In the case of `OC(c1ccc(OCc2ccccc2)cc1)c1nnc(-c2ccccc2)o1` (centres undefined), the EC50 was 13400 nM.

With `O=C(CSc1nnc(CNC(=O)c2c(F)cccc2F)o1)NCCc1ccccc1`, the EC50 is > 15000 nM (inactive).

Take `O=[N+]([O-])c1cc(C(F)(F)F)cc([N+](=O)[O-])c1NCCNC(=S)Nc1ccc(Cl)c(Cl)c1`: the EC50 is 1120 nM.

With `O=c1c2c(n3nnnc3n1Cc1ccccc1)-c1ccccc1CC21CCCC1`, the EC50 is 1670 nM.

`COc1ccccc1OCC(=O)Nc1c2c(nn1-c1ccc(F)cc1)CS(=O)(=O)C2`: the EC50 is > 15000 nM (inactive).

Regarding `Cc1ccc(C)c(-c2nnc(NC(=O)CCS(=O)(=O)c3ccccc3)o2)c1`, the EC50 was 8640 nM.

`O=C(CSc1ccc(Cl)cc1)NC1=NN(c2ccccc2)C(=O)C1`: the EC50 is 5540 nM.

On to `Cn1ncc2c(Nc3ccc(Br)cc3)nc(Nc3ccc(Br)cc3)nc21`, for which the EC50 was 1080 nM.

Turning to `Cc1cc(-c2c(C)[nH]n(-c3ccc(Cl)cc3)c2=O)n[nH]1`, the EC50 is 1780 nM.

In the case of `CC(C)C[C@H](NC(=O)N1CC(=O)Nc2ccccc21)C(=O)N[C@H](C(=O)O)c1ccccc1`, the EC50 is > 15000 nM (inactive).

Regarding `CCOC(=O)c1c2c(n(C)c1COC)C(=O)C(=O)c1ccc(Br)cc1-2`, the concentration giving a half-maximal response (EC50) was 3660 nM.

Take `CC(=O)NNC(=S)NC(=O)C(c1ccccc1)c1ccccc1`: the concentration giving a half-maximal response (EC50) is 853 nM.

Turning to `CCOC(=O)C(=NC(C)(C)C)NNc1cc(Cl)ccc1Cl`, the concentration giving a half-maximal response (EC50) is 2900 nM.

On to `CCOC(=O)c1cccc(N2C(N)=NC(N)=NC2(C)C)c1`, for which the concentration for a half-maximal effect (EC50) is 109 nM.

On to `Nc1ccc(-c2nc3nc(N)nc(N)c3nc2-c2ccc(N)cc2)cc1`, for which the EC50 is 3770 nM.

On to `Cc1cc(C)n(-c2nc(NC(C)(C)C)nc(NC(C)(C)C)n2)n1`, for which the half-maximal effective concentration (EC50) is 396 nM.

In the case of `CCOc1cccc(/C=N/NC(=O)c2ccc3c(c2)OCCO3)c1O`, the half-maximal effective concentration (EC50) was 1270 nM.

Turning to `CCCCNC(=O)c1cn(CC(C)C)c(=O)c2c1c1ccccc1n2C`, the 50% effective concentration (EC50) is 9020 nM.

`O=C(COc1ccc(Cl)cc1Cl)NNC(=S)NC(=O)c1ccco1`: the EC50 is 102 nM.

Consider `CC(C)C1OC2c3cccc4cccc(c34)C2N1c1ccccc1` (centres undefined), for which the EC50 was 2570 nM.

On to `O=[N+]([O-])c1cccnc1N1CCC(c2cc(-c3ccc(Cl)cc3Cl)n[nH]2)CC1`, for which the EC50 was 1240 nM.

Take `CC(C)(C)NS(=O)(=O)c1ccc(NS(=O)(=O)Cc2ccccc2)cc1`: the EC50 was > 15000 nM (inactive).

Take `COc1ccc(/C=N/n2c(-c3cccs3)n[nH]c2=S)cc1`: the EC50 is 14300 nM.

For the compound `COc1ccc(C2CC(O)(c3ccccc3)Oc3c(C)ccc(C)c32)cc1` (centres undefined), the EC50 was > 15000 nM (inactive).

Regarding `COC(C(=O)Nc1ccnn1C1CCN(Cc2nccs2)CC1)c1ccccc1` (centres undefined), the EC50 was > 15000 nM (inactive).

Regarding `COc1ccc(NC(=O)CSc2ccc3nnc(-c4ccccn4)n3n2)c(OC)c1`, the EC50 was > 15000 nM (inactive).

As to `COc1cc(/C=N/Nc2ncnc3sc4c(c23)CCC4)ccc1O`, the EC50 is 2110 nM.

With `CCN=C1S/C(=C\c2ccc(-c3cccc(C(=O)O)c3)o2)C(=O)N1CC`, the EC50 was 3400 nM.

Regarding `Cc1cccc(Oc2nc(-c3ccncc3)nc3ccccc23)c1`, the EC50 was 8040 nM.

Take `COc1cc2nc(CSc3nc(-c4ccc(F)cc4)cs3)[nH]c(=O)c2cc1OC`: the EC50 was > 15000 nM (inactive).

As to `Cc1ccc(N=Nc2ccc(O)c(P(=O)(c3ccccc3)c3ccccc3)c2)cc1`, the EC50 was 3360 nM.

Turning to `O=[N+]([O-])c1cc(Cl)cc(/C=N\Nc2ccccn2)c1O`, the concentration giving a half-maximal response (EC50) is 2890 nM.

Regarding `COc1ccc(-c2cc3nc4n(c(=O)c3s2)CCC4)cc1`, the EC50 was 734 nM.

Turning to `CCOP(=O)(Cc1ccc(C(=O)CC)o1)OCC`, the EC50 was > 15000 nM (inactive).

In the case of `O=C(Nc1ccccc1)Nc1cc(OCC(F)(F)F)cc(OCC(F)(F)F)c1`, the concentration giving a half-maximal response (EC50) was 4780 nM.

As for `O=C(CSc1nnc(-c2ccc3c(c2)OCO3)o1)Nc1ncc(C(F)(F)F)cc1Cl`, the EC50 is 856 nM.

Consider `Cc1cc(Cl)c2oc(C(=O)N3CCN(C(=O)c4ccco4)CC3)c(C)c2c1`, for which the EC50 was 4450 nM.

Consider `CCCCCCCCCCOC(=O)Cn1c(COc2ccc(C)cc2)[n+](C)c2ccccc21`, for which the EC50 is 5670 nM.

As for `Nc1ccc2c(c1)C(=O)C(=O)c1ccccc1-2`, the concentration giving a half-maximal response (EC50) was 754 nM.

As to `O=C(CN1c2ccccc2Sc2ccccc21)NNC(=O)Nc1ccc(Cl)c(Cl)c1`, the EC50 is 2230 nM.

On to `CC(C)N1CCc2c(sc(NC(=O)c3ccc([N+](=O)[O-])o3)c2C(N)=O)C1`, for which the EC50 was 3500 nM.

As for `CCOC(=O)c1ccc(NC(=O)c2sc3nc4n(c(=O)c3c2C)CCC4)cc1`, the concentration giving a half-maximal response (EC50) is 1990 nM.

For `Cc1[nH]n(-c2ncc(-c3ccccc3)s2)c(=O)c1C(c1ccc(Br)cc1)C(C#N)C#N` (centres undefined), the EC50 is 5830 nM.

With `COc1cc(F)ccc1CN1CCC(n2nccc2NC(=O)C2CCOC2)CC1` (centres undefined), the EC50 was > 15000 nM (inactive).

Regarding `Cc1nc(NS(=O)(=O)c2ccc(Cl)s2)c2c3c(sc2n1)CCCC3`, the half-maximal effective concentration (EC50) is 3980 nM.

For the compound `Cc1csc(NC(=O)COCC(=O)O)c1-c1nc2ccccc2s1`, the 50% effective concentration (EC50) was 6450 nM.

As to `COc1cccc(-c2nnc(NC(=O)c3ccc(S(=O)(=O)N4CC(C)OC(C)C4)cc3)o2)c1` (centres undefined), the EC50 was 1160 nM.

In the case of `Cc1ccc(-c2nn(-c3ccccc3)cc2/C=N/O)cc1`, the half-maximal effective concentration (EC50) is 6280 nM.

Consider `O=C(CSc1nnc(NC(=O)c2cccc(F)c2)s1)NCC1CCCO1` (centres undefined), for which the EC50 was > 15000 nM (inactive).

Turning to `Cc1ccc(N(C)S(=O)(=O)c2cccc(C(=O)Nc3nc4ccccc4[nH]3)c2)cc1`, the EC50 was 1000 nM.

Regarding `O=C(Nc1nc(-c2ccccn2)cs1)Nc1ccc(F)cc1F`, the concentration for a half-maximal effect (EC50) was 1240 nM.

For the compound `Cc1c(C(=O)NNC(=S)NCc2ccc(Cl)cc2)oc2ccccc12`, the EC50 is 2170 nM.

As for `O=C(O)c1ccc(N/N=C/c2ccc(-c3ccc(Br)cc3)o2)cc1`, the EC50 was 2360 nM.

Turning to `Cc1cc(Oc2cnn(C(C)(C)C)c(=O)c2Cl)cc(C(C)C)c1`, the concentration for a half-maximal effect (EC50) is 4370 nM.

`Cc1cccc(NC(c2ccc(C)s2)c2ccc3ccc(C)nc3c2O)n1` (centres undefined): the concentration giving a half-maximal response (EC50) was 3900 nM.

`COc1cc(C(=O)NC(=S)Nc2ccc(NC(=O)c3ccco3)cc2)cc(OC)c1OC`: the EC50 is 8970 nM.

On to `Cc1cc(C)c(OCC(=O)Nc2nc(-c3ccccn3)cs2)c(C)c1`, for which the EC50 was 1400 nM.

As to `CC12CCC(C(=O)N(CSC(=S)N/N=C\c3ccccc3O)C1=O)C2(C)C` (centres undefined), the EC50 was 2550 nM.

As for `Cn1ncc2c(Nc3ccc(Cl)c(Cl)c3)ncnc21`, the EC50 is 4820 nM.

For the compound `O=C(O)CCCN1C(=O)/C(=C\c2ccc(-c3nc4ccccc4s3)o2)SC1=S`, the EC50 is 4890 nM.

As for `COc1cc(/C=C/c2ccc3cccc(O)c3n2)c(Br)cc1O`, the EC50 was 350 nM.

`CCC(C)c1ccccc1NS(=O)(=O)c1cnn(CC)c1` (centres undefined): the EC50 is > 15000 nM (inactive).

As to `S=C(Nc1ccc(Cl)cc1)c1nc2ccccc2[nH]1`, the EC50 was 183 nM.

As for `O=C(CCC(=O)Nc1cc(C(F)(F)F)ccc1Cl)N/N=C\c1cc([N+](=O)[O-])ccc1O`, the EC50 was 658 nM.

Turning to `O=c1cc(-c2ccc([N+](=O)[O-])cc2)nc2cc(-c3ccc(F)cc3)[nH]n12`, the concentration for a half-maximal effect (EC50) was 3480 nM.

Consider `CCCn1cc(CN2CCC(n3nccc3NC(=O)c3ccccc3)CC2)c(C)n1`, for which the EC50 was > 15000 nM (inactive).

For the compound `O=C(CSc1nnc(NC(=O)C2CC(=O)N(c3ccc(F)cc3)C2)s1)NCc1ccco1` (centres undefined), the EC50 is > 15000 nM (inactive).

For `O=[N+]([O-])c1cc(Cl)cc(/C=N/Nc2nc3ccccc3s2)c1O`, the EC50 was 1540 nM.

Values taken from PubChem BioAssay AID1902 (Broad Institute, 2009).
